Where two headings read alike, the source gives them in different places.
Target: T1, Akt1 (Homo sapiens, UniProt P31749, S473D)
T1 construct: The version of Akt used in these studies lacks the pleckstrin homology (PH) domain
Assay: Akt1 kinase assay, fluorescence polarization (IMAP)
Format: biochemical
How it was run: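 His-tagged Akt1 lacking the PH domain, Thr308-prephosphorylated, 1.5 ng per reaction, with 4 μM ATP and 40 nM TAMRA-Crosstide (solution concentrations) in Tris pH 7.5/MgCl2/DTT buffer. Incubated 30 min at ambient temperature; IMAP fluorescence polarization read (544/615 nm). IC50 after subtraction of no-enzyme background.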

[1] = Table 1, concentration bins, read-out: Concentration Range at which exemplary compounds of formula I inhibit Akt kinase activity
[2] = Table 3, read-out: Avg Akt kinase, μM (50% inhibition)
[3] = average Akt kinase activity (IC50), read-out: Avg Akt kinase, μM (50% inhibition)
[4] = read-out: Avg Akt kinase, μM (50% inhibition)

T1 sequence (P31749 118-480 S473D limits assumed, species assumed): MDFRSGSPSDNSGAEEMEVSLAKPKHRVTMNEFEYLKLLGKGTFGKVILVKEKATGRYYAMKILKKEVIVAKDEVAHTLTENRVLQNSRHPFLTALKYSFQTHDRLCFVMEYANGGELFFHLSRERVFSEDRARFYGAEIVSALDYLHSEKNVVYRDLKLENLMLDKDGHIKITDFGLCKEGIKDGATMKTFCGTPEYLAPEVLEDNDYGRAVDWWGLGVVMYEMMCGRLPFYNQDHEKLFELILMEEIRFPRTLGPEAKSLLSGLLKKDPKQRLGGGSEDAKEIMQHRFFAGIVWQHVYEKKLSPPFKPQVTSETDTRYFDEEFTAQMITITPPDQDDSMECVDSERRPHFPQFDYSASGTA

| SMILES | IC50 [1] | IC50 [2] | IC50 [3] | IC50 [4] |
| --- | --- | --- | --- | --- |
| Cc1c[nH]c2ncnc(N3CC[C@](N)(CNc4ccc(Cl)cc4)C3)c12 [Example 18, (3S)-3-{[(4-chlorophenyl)amino]methyl}-1-(5-methyl-7H-pyrrolo[2,3-d]pyrimidin-4-yl)pyrrolidin-3-amine] | 0.00025 to 0.0025 µM | 0.002 µM | – | – |
| Cc1c[nH]c2ncnc(N3CCC(N)(CNc4ccc(CC(N)=O)cc4)C3)c12 (stereo not shown) [Example 16, 2-[4-({[3-amino-1-(5-methyl-7H-pyrrolo[2,3-d]pyrimidin-4-yl)pyrrolidin-3-yl]methyl}amino)phenyl]-acetamide] | 0.0101 to 0.1 µM | 0.0143 µM | – | – |
| CCc1c[nH]c2ncnc(N3CC[C@](N)(CNC(=O)c4cccc(F)c4)C3)c12 [Example 105, N-{[(3S)-3-amino-1-(5-ethyl-7H-pyrrolo[2,3-d]pyrimidin-4-yl)pyrrolidin-3-yl]methyl}-3-fluorobenzamide] | 0.0101 to 0.1 µM | – | 0.0107 µM | – |
| N[C@]1(CNC(=O)c2c(F)cccc2Cl)CCN(c2ncnc3[nH]cc(Cl)c23)C1 [Example 113, N-{[(3S)-3-amino-1-(5-chloro-7H-pyrrolo[2,3-d]pyrimidin-4-yl)pyrrolidin-3-yl]methyl}-2-chloro-6-fluorobenzamide] | 0.0101 to 0.1 µM | – | 0.0332 µM | – |
| CCc1c[nH]c2ncnc(N3CC[C@](N)(CNC(=O)c4ccccc4)C3)c12 [Example 110, N-{[(3S)-3-amino-1-(5-ethyl-7H-pyrrolo[2,3-d]pyrimidin-4-yl)pyrrolidin-3-yl]methyl}benzamide] | 0.00251 to 0.01 µM | – | 0.0073 µM | – |
| N[C@]1(CNC(=O)c2cccc(Cl)c2)CCN(c2ncnc3[nH]cc(Cl)c23)C1 [Example 112, N-{[(3S)-3-amino-1-(5-chloro-7H-pyrrolo[2,3-d]pyrimidin-4-yl)pyrrolidin-3-yl]methyl}-3-chlorobenzamide] | 0.00251 to 0.01 µM | – | 0.00376 µM | – |
| NC1(CNc2cccc(C(F)(F)F)c2)CCN(c2ncnc3[nH]cnc23)C1 (stereo not shown) [Example 14, 1-(9H-purin-6-yl)-3-({[3-(trifluoromethyl)phenyl]amino}-methyl)pyrrolidin-3-amine] | 0.101 to 10 µM | 0.108 µM | – | – |
| Cc1c[nH]c2ncnc(N3CCC(N)(CSc4cccc(C(F)(F)F)c4)C3)c12 (stereo not shown) [Example 66, 1-(5-methyl-7H-pyrrolo[2,3-d]pyrimidin-4-yl)-3-((3-(trifluoromethyl)phenylthio)methyl) -pyrrolidin-3-amine] | 0.101 to 10 µM | – | 0.701 µM | – |
| Cc1c[nH]c2ncnc(N3CC[C@](N)(CNC(=O)c4cc(F)ccc4F)C3)c12 [Example 101, N-{[(3S)-3-amino-1-(5-methyl-7H-pyrrolo[2,3-d]pyrimidin-4-yl)pyrrolidin-3-yl]methyl}-2,5-difluorobenzamide] | 0.0101 to 0.1 µM | – | 0.015 µM | – |
| COC(=O)c1ccccc1NCC1(N)CCN(c2ncnc3[nH]nc(C)c23)C1 (stereo not shown) [Example 5, 2-{[3-Amino-1-(3-methyl-1H-pyrazolo[3,4-d]pyrimidin-4-yl)-pyrrolidin-3-ylmethyl]-amino}-benzoic acid methyl ester] | 0.101 to 10 µM | 0.394 µM | – | – |
| NC1(CNc2cccc(C(F)(F)F)c2)CCN(c2ccnc3[nH]ccc23)C1 (stereo not shown) [Example 42, 1-(1H-pyrrolo[2,3-b]pyridin-4-yl)-3-({[3-(trifluoromethyl)phenyl]amino}-methyl)pyrrolidin-3-amine] | 0.0101 to 0.1 µM | 0.0354 µM | – | – |
| CCCc1c[nH]c2ncnc(N3CC[C@@](N)(CNC(=O)c4cc(C)on4)C3)c12 [Example 95, N-{[(3R)-3-amino-1-(5-propyl-7H-pyrrolo[2,3-d]pyrimidin-4-yl)pyrrolidin-3-yl]methyl}-5-methylisoxazole-3-carboxamide] | 0.00251 to 0.01 µM | – | 0.00433 µM | – |
| CCc1c[nH]c2ncnc(N3CC[C@](N)(CNC(=O)c4ccc(F)cc4)C3)c12 [Example 93] | 0.00025 to 0.0025 µM | – | 0.00191 µM | – |
| N#Cc1c[nH]c2ncnc(N3CC[C@](N)(CNC(=O)c4ccc(Cl)cc4F)C3)c12 [Example 99, N-{[(3S)-3-amino-1-(5-cyano-7H-pyrrolo[2,3-d]pyrimidin-4-yl)pyrrolidin-3-yl]methyl}-4-chloro-2-fluorobenzamide] | 0.0101 to 0.1 µM | – | 0.0186 µM | – |
| CCc1c[nH]c2ncnc(N3CC[C@](N)(CNC(=O)c4cccc(F)c4F)C3)c12 [Example 89] | 0.00251 to 0.01 µM | – | 0.00278 µM | – |
| Cc1cccc(C(=O)NC[C@@]2(N)CCN(c3ncnc4[nH]cc(Cl)c34)C2)c1Cl [Example 119] | 0.00251 to 0.01 µM | – | 0.00785 µM | – |

| SMILES | IC50 [1] | IC50 [2] | IC50 [3] | IC50 [4] |
| --- | --- | --- | --- | --- |
| N#Cc1n[nH]c2ncnc(N3CCC(N)(CNc4cccc(Cl)c4F)C3)c12 (stereo not shown) [Example 7, 4-(3-amino-3-((3-chloro-2-fluorophenylamino)methyl)pyrrolidin-1-yl)-1H-pyrazolo[3,4-d]pyrimidine-3-carbonitrile] | 0.0101 to 0.1 µM | 0.0523 µM | – | – |
| N#Cc1c[nH]c2ncnc(N3CC[C@](N)(CNC(=O)c4ccc(F)cc4)C3)c12 [Example 94] | 0.00251 to 0.01 µM | – | 0.00923 µM | – |
| Cc1c[nH]c2ncnc(N3CCC(N)(CN(C)Cc4ccc(Cl)cc4)C3)c12 (stereo not shown) [Example 45, 3-{[(4-chlorobenzyl)(methyl)-amino]methyl}-1-(5-methyl-7H-pyrrolo[2,3-d]pyrimidin-4-yl)pyrrolidin-3-amine] | 0.101 to 10 µM | 0.144 µM | – | – |
| Cc1c[nH]c2ncnc(N3CC[C@](N)(CNC(=O)c4cccc(F)c4Cl)C3)c12 [Example 123, N-{[(3S)-3-amino-1-(5-methyl-7H-pyrrolo[2,3-d]pyrimidin-4-yl)pyrrolidin-3-yl]methyl}-2-chloro-3-fluorobenzamide] | 0.00251 to 0.01 µM | – | 0.00526 µM | – |
| Cc1c[nH]c2ncnc(N3CCC(N)(CNc4ccc(Cl)cc4F)C3)c12 (stereo not shown) [Example 31, 3-{[(4-chloro-2-fluorophenyl)amino]methyl}-1-(5-methyl-7H-pyrrolo[2,3-d]pyrimidin-4-yl)pyrrolidin-3-amine] | 0.00251 to 0.01 µM | 0.00514 µM | – | – |
| Cc1c[nH]c2ncnc(N3CC[C@](N)(CNC(=O)c4ccccc4)C3)c12 [Example 109, N-{[(3S)-3-amino-1-(5-methyl-7H-pyrrolo[2,3-d]pyrimidin-4-yl)pyrrolidin-3-yl]methyl}benzamide] | 0.00251 to 0.01 µM | – | 0.00586 µM | – |
| Cc1c[nH]c2ncnc(N3CCC(N)(CNc4cccc(C(F)(F)F)c4)C3)c12 (stereo not shown) [Example 23, 1-(5-methyl-7H-pyrrolo[2,3-d]pyrimidin-4-yl)-3-({[3-(trifluoromethyl)phenyl]amino}-methyl)pyrrolidin-3-amine] | 0.00251 to 0.01 µM | 0.00669 µM | – | – |
| Cc1c[nH]c2ncnc(N3CCC(N)(CN(C)C(=O)c4ccccc4F)C3)c12 (stereo not shown) [Example 197, N-((3-amino-1-(5-methyl-7H-pyrrolo[2,3-d]pyrimidin-4-yl)pyrrolidin-3-yl)methyl)-2-fluoro-N-methylbenzamide] | 0.101 to 10 µM | – | – | 0.148 µM |
| CCc1c[nH]c2ncnc(N3CC[C@](N)(CNC(=O)c4ccccc4Cl)C3)c12 [Example 128] | 0.0101 to 0.1 µM | – | 0.0147 µM | – |
| Cc1c[nH]c2ncnc(N3CC[C@](N)(CNC(=O)c4cccc(F)c4F)C3)c12 [Example 87] | 0.00251 to 0.01 µM | – | 0.00758 µM | – |
| Cc1c[nH]c2ncnc(N3CC[C@](N)(CNC(=O)c4cccc(Cl)c4)C3)c12 [Example 115] | 0.00251 to 0.01 µM | – | 0.00998 µM | – |
| Cc1c[nH]c2ncnc(N3CCC(N)(CNc4ccc(S(=O)(=O)NCc5ccccc5)cc4)C3)c12 (stereo not shown) [Example 12, 4-({[3-amino-1-(5-methyl-7H-pyrrolo[2,3-d]pyrimidin-4-yl)pyrrolidin-3-yl]methyl}amino)-N-benzylbenzenesulfonamide] | 0.0101 to 0.1 µM | 0.0105 µM | – | – |
| CCc1c[nH]c2ncnc(N3CC[C@](N)(CNC(=O)c4ccc(Cl)cc4)C3)c12 [Example 88] | 0.00025 to 0.0025 µM | – | 0.0018 µM | – |
| Cc1c[nH]c2ncnc(N3CCC(N)(CNS(=O)(=O)c4c(F)cccc4F)C3)c12 (stereo not shown) [Example 198, N-{[3-amino-1-(5-methyl-7H-pyrrolo[2,3-d]pyrimidin-4-yl)pyrrolidin-3-yl]methyl}-2,6-difluorobenzenesulfonamide] | 0.0101 to 0.1 µM | – | – | 0.00267 µM |
| Cc1c[nH]c2ncnc(N3CCC(N)(CNC(=O)c4ccccc4)C3)c12 (stereo not shown) [Example 69, N-((3-amino-1-(5-methyl-7H-pyrrolo[2,3-d]pyrimidin-4-yl)pyrrolidin-3-yl)methyl)benzamide] | 0.0101 to 0.1 µM | – | 0.0623 µM | – |
| Cc1cc(CNC[C@@]2(N)CCN(c3ncnc4[nH]cc(C)c34)C2)no1 [Example 53, (3S)-3-({[(5-methylisoxazol-3-yl)methyl]amino}methyl)-1-(5-methyl-7H-pyrrolo[2,3-d]pyrimidin-4-yl)pyrrolidin-3-amine] | 0.0101 to 0.1 µM | 0.0293 µM | – | – |

Reference: US20080051419A1, “AMINE DERIVATIVES USEFUL AS ANTICANCER AGENTS” (PFIZER INC., priority 2006, published 2008)
